The subject of the data set is human intestinal microsomes. As to the kind of experiment: Reduction in the intestinal barrier effect: simvastatin remaining after incubation with human intestinal microsomes. Conditions: 12 μmol, 1 mg/ml microsomes, 37° C. How it is done: The test is carried out in vitro using human intestinal microsomes containing:
0.09 nmol/mg of cytochromes P450,
0.77 nmol/min/mg of cytochromes P450 3 A 4.
1 mg/ml of microsomes is then placed in contact:
with a regenerating system having the following composition:
followed by equilibration at 37° C. for 3 minutes.
100 μl aliquots are mixed with a solution of 400 μl of a 50/50 mixture of ice and acetonitrile at 0, 15, 30, 60, 120 and 180 minutes. Testosterone is tested in parallel as control component.
The conditions for carrying out the HPLC are as follows:
The mass spectrometer used is known under the reference PE SCIEX 150.

With `C[C@]12CC[C@H]3[C@@H](CCC4=CC(=O)CC[C@@]43C)[C@@H]1CC[C@@H]2O` [TESTOSTERONE, Testosterone], the “PERCENTAGE REMAINING” value runs as follows: (time 0 min) 100%; (time 15 min) “completely disappeared”; (time 180 min) 0%.

The values above are taken from patent publication US6652865B2, “Method and formulation for decreasing statin metabolism” (Gattefosse Holding, priority 2001, dated 2003).
